Test results reported in patent US6828439B1, “Compounds, composition, and methods for photodynamic therapy” (Advanced Research and Technology Institute, Inc., priority 1999, dated 2004).
Entries after “also recorded” stand apart in the source; their conditions may differ.

Tests used:
[1] = Thermal reactivity of Pd metalloenediynes; type: physicochemical; conditions: room temperature
Method: The thermal reactivity of the complex was as follows. […] The reaction was followed by ^31p NMR analysis. The chemical shift of the complex was −5.71 ppm while that of the free ligand was −32.1 ppm. After 11 hours, there was evidence of the complex, free ligand, and 2 other resonances at −10.6 ppm and 25.4 ppm. […] A shift downfield was expected for the cyclized product and this could help explain the resonance at 25.4 ppm. […] What may have happened is that a ligand dissociated from the metal after cyclizing (−10.6 ppm) and then it reassociated with the metal (25.5 ppm). From the crystal structure, the environment around the metal was strained as is evident in the Pd—P—C bending. Additionally, the bite-angle of the resulting cyclized product, 1,2-bis(diphenylphosphino)naphthalene, would be smaller than that which would be required for tetrahedral geometry. This dissociation/reassociation may be slow enough to be detected on the NMR timescale.
Although crystallographic structural characterization of Pd(dppeb)Cl2 is unavailable, the d^8 Pd2^+ geometry is likely square planar with P—Pd—P angles near 90° which would reduce the alkyne carbon termini distances and lower the thermal barrier to cyclization. […]

HIV = conditions: human, in vivo; cited from earlier work
pUC 118 plasmid DNA = assay: Photoinduced cleavage of pUC 118 plasmid DNA by compound 5, agarose gel electrophoresis (Example IV); type: biochemical
Method: FIG. 8 illustrates the photoinduced DNA-cleavage of 30 μM/bp of pUC 118 plasmid DNA by 300 μM of compound 5 following 400 nm photolysis for 12 hours at 20° C. pursuant to 2% agarose gel electrophoresis.
Cleavage ability was determined by its effectiveness in converting circular supercoiled DNA (form I) to circular relaxed DNA (form II) and linear DNA (form III). FIG. 8 illustrates the agarose gel electrophoresis of photolysis products of 300 μM 5 in the presence of pUC 118 plasmid DNA (30 μM/bp). Solutions were irradiated for 12 hours in 1:9 DMSO:Tris buffer (20 mM, pH 7.55) at 400 nm. Photolyses were performed at 400 NM (rather than 455 NM) due to a soluatochronic blue shift in the optical absorption spectrum.

[2] = Anaerobic photolysis in acetonitrile at 345 nm and 455 nm monitored by UV/Vis spectrophotometry; type: physicochemical; conditions: for Photolysis reactivity of free ligand / kobs of photolysis (first order): acetonitrile; for kobs of photolysis (first order): anaerobic
Method: FIG. 7 depicts electronic absorption profiles of anaerobic photolyses of […] acetonitrile solutions of compound 5 at: (a) 345 nm; and (b) 455 nm.
Although the CT excited states appeared to satisfy the energy requirement, it was unknown if sufficient excited state lifetime existed to drive photodecomposition of the ligand. […] In both cases, significant photobleaching was observed, consistent with formation of Fe(II) in solution. This observation was further supported by the reemergence of color following aerial oxidation.
This can be attributed to the greater extinction coefficient at 345 nm (ε=9000 M^−1cm^−1) relative to 455 nm (ε=5450 M^−1cm^−1), and the simultaneous excitation of the LMCT and n-π* transitions of the Fe(III) compound, both of which lead to denitrogenation.
To investigate this dual state hypothesis, identical photolyses were carried out on solutions of 4 in acetonitrile.

[3] = N2 extrusion on photolysis, headspace GC/MS; type: physicochemical; conditions: degassed benzonitrile under argon, average of 4 trials
Method: To correlate the observed reactivity with N2 extrusion, a series of wavelength dependent photolyses were performed on 800 μL solutions of 5 under argon in degassed benzonitrile. From headspace GC/MS analysis, N2 production was gauged by comparison of the N2/O2 ratios above the photolyzed samples relative to unphotolyzed controls. […] Taken together, these experiments provide compelling evidence that the overall strategy to induce radical formation from CT excited states is indeed operative.

pUC118 = assay: Photochemical DNA cleavage by Cu(II) diazo complex, agarose gel (Example VI); type: biochemical; conditions: 25 μm, 20° C.; for DNA forms in thermal and photochemical control studies: 1 hour incubation or 455 nm light, lanes 3-11
Method: FIG. 10 illustrates DNA-cleavage of 50 μM pUC 118 plasmid DNA by bis(9-diazo-4,5-diazafluorene)copper(II) nitrate following 455 nm photolysis for 1 hour at 20° C. pursuant to 2% agarose gel electrophoresis.
FIG. 10 illustrates the DNA cleavage of 50 μM pUC118 by this compound following 455 nm photolysis for 1 hour at 20° C. (agarose gel, 2%).
Three forms of […] plasmid DNA were prepared for use in the […] assay. Form I was supercoiled plasmid. Form II was nicked plasmid. Form III was linear plasmid. The three plasmid forms were subjected to 11 lanes of varying conditions. Lane 1 pertained to the DNA forms alone. Lane 2 involved an EcoR1 digest of the DNA, which was used as a marker. In lane 3, the DNA was subjected for 1 hour to light at a wavelength of 455 nm. In lane 4, the DNA was subjected to 25 μm Cu(II) (diazafluorenone)2^2+ for 1 hour incubation. In lane 5, the DNA was subjected to 25 μm Cu(II) (diazafluorenone)2^2+ in the presence of light at a wavelength of 455 nm for 1 hour. Lane 6 subjected the DNA to 25 μm of 9-diazafluorene in the presence of light at a wavelength of 455 nm for 1 hour. In lane 7, the DNA was subjected to 25 μm 9-diazo-4,5-diazafluorene in the presence of light at a wavelength of 455 nm for 1 hour. In lane 8, the DNA was subjected to 25 μm bis(9-diazo-4,5-diazafluorene)copper(II) nitrate rapid quench. In lane 9, the DNA was subjected to 25 μm bis(9-diazo-4,5-diazafluorene)copper(II) nitrate for 1 hour incubation. In lane 10, the DNA was subjected to 25 μm bis(9-diazo-4,5-diazafluorene)copper(II) nitrate for 1 hour incubation at 37° C. In lane 11, the DNA was subjected to 25 μm bis(9-diazo-4,5-diazafluorene)copper(II) nitrate for 1 hour at a wavelength of 455 nm.

[4] = literature values; cited from earlier work
[5] = 95° C. for several days; cited from earlier work

Structure (SMILES): C(#CP(c1ccccc1)c1ccccc1)c1ccccc1C#CP(c1ccccc1)c1ccccc1.C(#CP(c1ccccc1)c1ccccc1)c1ccccc1C#CP(c1ccccc1)c1ccccc1.[Pd] [Pd(dppeb)2]
- Thermal stability [1]: stable at room temperature

Structure (SMILES): Nc1ccn([C@H]2CC[C@@H](CO)O2)c(=O)n1 [ddC, 2′3′-dideoxycytidine]
- Virustatic range in most patients (HIV): 0.005-0.25 mg/kg body weight

Structure (SMILES): O=c1c2ccccc2nnn1O [Compound 4, 3-Hydroxy-1,2,3-benzotriazine-4(3H)-one, reference compound]
- DNA forms produced by photolysis of free ligand (pUC 118 plasmid DNA; 900 μM free ligand, 400 nm, 12 hours, lane 6): a small amount of form II
- Photolysis reactivity of free ligand ([2]; 345 nm): noticeably reduced reaction rate
- Photolysis reactivity of free ligand ([2]; 455 nm): no reactivity

Structure (SMILES): O=c1c2ccccc2nnn1[O-].O=c1c2ccccc2nnn1[O-].O=c1c2ccccc2nnn1[O-].[Fe+3] [Compound 5, Fe(3-Hydroxy-1,2,3-benzotriazine-4(3H)-one)3]
- Increased N2 content versus unphotolyzed controls ([3]; 345 nm): 112%
- Increased N2 content versus unphotolyzed controls ([3]; 455 nm): 9.7%
- DNA forms produced by photolysis (form I supercoiled, form II nicked, form III linear) (pUC 118 plasmid DNA; 300 μM 5, pUC 118 30 μM/bp, 400 nm, 12 hours, 1:9 DMSO:Tris buffer (20 mM, pH 7.55), lane 3): a mixture of linear and nicked forms
- DNA cleavage on thermal incubation (pUC 118 plasmid DNA; similar thermal incubation without light, lane 4): no DNA cleavage
- Wavelength up to which reactivity was demonstrated [2]: up to 515 nm
- kobs of photolysis (first order) ([2]; 345 nm): 0.093 min⁻¹
- kobs of photolysis (first order) ([2]; 455 nm): 0.004 min⁻¹

Structure (SMILES): [N-]=[N+]=C1c2cccnc2-c2ncccc21 [9-diazo-4,5-diazafluorene, reference compound]
- DNA forms in thermal and photochemical control studies (pUC118): very small and comparable amounts of the nicked form; also recorded: did not exhibit any preferential thermal or photochemical DNA cleavage

Structure (SMILES): C(#CP(c1ccccc1)c1ccccc1)c1ccccc1C#CP(c1ccccc1)c1ccccc1
- Bergman cyclization temperature reported in the literature [4]: 243 °C
- Thermal stability in the presence of a hydrogen donor [5]: stable

Structure (SMILES): O=[N+]([O-])[O-].O=[N+]([O-])[O-].[Cu+2].[N-]=[N+]=C1c2cccnc2-c2ncccc21.[N-]=[N+]=C1c2cccnc2-c2ncccc21 [bis(9-diazo-4,5-diazafluorene)copper(II) nitrate]
- DNA forms in thermal and photochemical control studies (pUC118): very small and comparable amounts of the nicked form
- DNA forms after photolysis (pUC118; 455 nm, 1 hour, 10 mM Tris pH 7.6, 50 μM pUC118, lane 11): predominantly nicked DNA with a moderate amount of the linear form
